This note sets out measurements from patent US10752587B2, “Homobispiperidinyl derivatives as liver X receptor beta agonists, compositions and their use” (Merck Sharp & Dohme Corp., priority 2015, dated 2020).

The target of assay [1] is T1, glutathione-S-transferase (GST) tagged LXRbeta LBD (ligand binding domain) (Homo sapiens, UniProt P55055).
T1 construct: purchased Invitrogen pv4658.pps
T1 sequence (P55055 222-460 limits assumed): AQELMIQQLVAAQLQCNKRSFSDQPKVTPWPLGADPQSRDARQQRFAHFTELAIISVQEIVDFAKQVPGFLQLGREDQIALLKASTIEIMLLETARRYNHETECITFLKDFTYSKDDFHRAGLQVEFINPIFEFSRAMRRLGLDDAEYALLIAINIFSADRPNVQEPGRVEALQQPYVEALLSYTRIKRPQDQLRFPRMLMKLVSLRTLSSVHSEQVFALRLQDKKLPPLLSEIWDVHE
Put plainly: LanthaScreen TR-FRET Liver X Receptor Coactivator Assay, co-activator recruitment to LXRbeta LBD. It counts as biochemical. As to conditions: for Emax: efficacy at max dose, in relation to reference dual agonist T0901317, read-out: LXR beta Activity @ max dose (%); for EC50: potency (Inflection Point, IP), co-activator recruitment to LXRbeta LBD, in relation to T0901317, read-out: LXR beta IP. In a few lines: (§1)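 GST-tagged LBD added to test compound, then fluorescein-labelled coactivator peptide plus terbium anti-GST antibody; incubated at room temperature, TR-FRET read. Potency given as inflection point and efficacy as Emax relative to reference dual agonist T0901317.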
Background: TR-FRET usually uses a lanthanide donor and a delayed reading to cut background.

The target of assay [2] is T2, glutathione-S-transferase (GST) tagged LXRalpha LBD (ligand binding domain) (Homo sapiens, UniProt Q13133).
T2 construct: purchased Invitrogen pv4655
T2 sequence (Q13133 209-447 limits assumed): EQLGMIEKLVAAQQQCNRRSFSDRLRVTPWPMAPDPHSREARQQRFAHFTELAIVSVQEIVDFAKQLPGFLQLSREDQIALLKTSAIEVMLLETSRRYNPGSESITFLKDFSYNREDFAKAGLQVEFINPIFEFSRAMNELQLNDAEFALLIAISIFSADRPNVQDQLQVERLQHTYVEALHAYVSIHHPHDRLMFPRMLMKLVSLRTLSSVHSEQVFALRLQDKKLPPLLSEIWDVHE
Kind of assay: LanthaScreen TR-FRET Liver X Receptor Coactivator Assay, co-activator recruitment to LXRalpha LBD. It is filed as biochemical. The settings on record: for Emax: efficacy at max dose, in relation to reference dual agonist T0901317, read-out: LXR alpha Activity @ max dose (%); for EC50 / LXR alpha IP (nM): potency (Inflection Point, IP), co-activator recruitment to LXRalpha LBD, in relation to T0901317; for EC50: read-out: LXR alpha IP. In a few lines:
as §1

SMILES strings stand for the structures.

Turning to `CN(C)C(=O)c1ccc(N2CCC(OC3CCN(C(=O)[C@](O)(c4cc(Cl)cc(Cl)c4)C(F)(F)F)CC3)CC2)cc1Cl` [Example 2-46, 2-chloro-4-[4-({1-[(2R)-2-(3,5-dichloro-phenyl)-3,3,3-trifluoro-2-hydroxy-propanoyl]piperidin-4-yl}oxy)piperidin-1-yl]-N,N-dimethyl-benzamide], the values for the Emax in assay [1] and in assay [2] were 102% and 31%, respectively. The EC50 in assay [1] is 0.009 µM; in assay [2], 0.216 µM.

For the compound `O=C(c1ccc(N2CCC(CC3CCN(C(=O)[C@](O)(c4ccccc4)C(F)(F)F)CC3)CC2)cc1Cl)N1CC[C@@H](CO)C1` [Example 4-4, (2R)-3-(4-{[1-(3-chloro-4-{[(3R)-3-(hydroxymethyl)pyrrolidin-1-yl]carbonyl}phenyl)piperidin-4-yl]methyl}piperidin-1-yl)-1,1,1-trifluoro-3-oxo-2-phenylpropan-2-ol], the figures for the Emax in assay [1] and in assay [2] were 56% and 24%, respectively. Also, the EC50 in assay [1] was determined as 0.179 µM; in assay [2], 0.459 µM.

On to `COc1cccc([C@@](O)(C(=O)N2CCC(CC3CCN(c4ccc(C(=O)N(C)C)c(Cl)n4)CC3)CC2)C(F)(F)F)c1` [Example 7-52, 2-chloro-N,N-dimethyl-6-[4-({1-[(2R)-3,3,3-trifluoro-2-hydroxy-2-(3-methoxyphenyl)propanoyl]piperidin-4-yl}methyl)piperidin-1-yl]pyridine-3-carboxamide], for which, in assay [1], the Emax was found to be 69% and the EC50 amounted to 0.005 µM. In assay [2], the Emax is 14% and the EC50 was determined as 0.12 µM.

In the case of `CNC(=O)c1ccc(N2CCC(OC3CCN(C(=O)C(O)(c4cccc(C(F)(F)F)c4)C(F)(F)F)CC3)CC2)cc1Cl` (centres unmarked) [Example 7-28, 2-chloro-N-methyl-4-{4-[(1-{3,3,3-trifluoro-2-hydroxy-2-[3-(trifluoromethyl)phenyl]propanoyl}piperidin-4-yl)oxy]piperidin-1-yl} benzamide], the values for the Emax in assay [1] and in assay [2] were 105% and 28%, respectively. The results for the EC50 in assay [1] and in assay [2] were 0.243 µM and 2.02 µM, respectively.

Regarding `CN(C)C(=O)c1ccc(N2CCC(CC3CN(C(=O)[C@](O)(c4cccc(OC(F)(F)F)c4)C(F)(F)F)C3)CC2)cc1Cl` [Example 2-63, 2-chloro-N,N-dimethyl-4-{4-[(1-{(2R)-3,3,3-trifluoro-2-hydroxy-2-[3-(trifluoro-methoxy)phenyl]propanoyl}azetidin-3-yl)methyl]piperidin-1-yl}benzamide], in assay [1], the Emax is 79% and the EC50 was 0.021 µM. Moreover, in assay [2], the Emax is 22% and the EC50 amounted to 1.51 µM.

Regarding `CN(C)C(=O)c1ccc(N2CCC(CC3CN(C(=O)[C@](O)(c4cc(F)cc(Cl)c4)C(F)(F)F)C3)CC2)nc1Cl` [Example 7-40, 2-chloro-6-[4-({1-[(2R)-2-(3-chloro-5-fluorophenyl)-3,3,3-trifluoro-2-hydroxypropanoyl]azetidin-3-yl}methyl)piperidin-1-yl]-N,N-dimethylpyridine-3-carboxamide], in assay [1], the Emax stood at 113% and the EC50 stood at 0.004 µM. In addition, in assay [2], the Emax amounted to 49% and the EC50 amounted to 0.291 µM.

With `CNC(=O)c1ccc(N2CCC(CC3CCN(C(=O)C(O)(c4cc(F)cc(F)c4)C(F)(F)F)CC3)CC2)nc1Cl` (centres unmarked) [Example 7-133, 2-chloro-6-[4-({1-[2-(3,5-difluorophenyl)-3,3,3-trifluoro-2-hydroxypropanoyl]piperidin-4-yl}methyl)piperidin-1-yl]-N-methylpyridine-3-carboxamide], in assay [1], the Emax is 123% and the EC50 came out at 0.006 µM. Moreover, in assay [2], the Emax was 66% and the EC50 came out at 0.083 µM.

On to `CN(C)C(=O)c1ccc(N2CCC(OC3CCN(C(=O)C(F)(F)F)CC3)CC2)cc1Cl` [Example 2-29, 2-chloro-N,N-dimethyl-4-(4-{[1-(trifluoro-acetyl)piperidin-4-yl]oxy}piperidin-1-yl)benzamide], for which, in assay [1], the Emax is 65% and the EC50 turned out to be 3.79 µM. In assay [2], the Emax turned out to be 25% and the “LXR alpha IP (nM)” value was “NO IP”.

For `CN(C)C(=O)c1ccc(N2CCC(CC3CCN(C(=O)[C@](O)(c4ccccc4)C(F)(F)F)C3)CC2)cc1Cl` (stereo partly drawn) [Example 2-71, 2-chloro-N,N-dimethyl-4-[4-({1-[(2R)-3,3,3-trifluoro-2-hydroxy-2-phenyl-propanoyl]pyrrolidin-3-yl}methyl)piperidin-1-yl]benzamide], in assay [1], the Emax is 64% and the EC50 was 0.084 µM. Also, in assay [2], the Emax was determined as 9% and the “LXR alpha IP (nM)” value was “NO IP”.

For the compound `Cc1nc(N2CCC(CC3CCN(C(=O)[C@](O)(c4cc(Cl)cc(Cl)c4)C(F)(F)F)CC3)CC2)ccc1C(=O)N(C)C` [Example 7-9, 6-[4-({1-[(2R)-2-(3,5-dichlorophenyl)-3,3,3-trifluoro-2-hydroxypropanoyl]piperidin-4-yl}methyl)piperidin-1-yl]-N,N,2-trimethylpyridine-3-carboxamide], in assay [1], the Emax stood at 70% and the EC50 was found to be 0.012 µM. Besides, in assay [2], the Emax turned out to be 3% and the “LXR alpha IP (nM)” value was “NO IP”.

For `CN(C)C(=O)c1ccc(N2CCC(CC3CCN(C(=O)[C@@](N)(c4ccccc4)C(F)(F)F)CC3)CC2)nc1Cl` [Example 7-110, 6-[4-({1-[(2S)-2-amino-3,3,3-trifluoro-2-phenylpropanoyl]piperidin-4-yl}methyl)piperidin-1-yl]-2-chloro-N,N-dimethylpyridine-3-carboxamide], in assay [1], the Emax was 54% and the EC50 stood at 0.118 µM. Besides, in assay [2], the Emax was 10% and the “LXR alpha IP (nM)” value is “NO IP”.

`CN(C)C(=O)c1ccc(N2CCC(CC3CCN(C(=O)C(F)(F)c4ccccc4)CC3)CC2)nc1Cl` [Example 7-86, 2-chloro-6-[4-({1-[difluoro(phenyl)acetyl]piperidin-4-yl}methyl)piperidin-1-yl]-N,N-dimethylpyridine-3-carboxamide]: in assay [1], the Emax worked out at 75% and the EC50 worked out at 0.165 µM. For the same compound, in assay [2], the Emax worked out at 32% and the “LXR alpha IP (nM)” value is “NO IP”.

Regarding `Cc1cccc(C(O)(C(=O)N2CCC(CC3CCN(c4ccc(C(=O)N(C)C)c(Cl)n4)CC3)CC2)C(F)(F)F)c1` (centres unmarked) [Example 7-55, 2-chloro-N,N-dimethyl-6-[4-({1-[3,3,3-trifluoro-2-hydroxy-2-(3-methylphenyl)propanoyl]piperidin-4-yl}methyl)piperidin-1-yl] pyridine-3-carboxamide], the Emax stood at 59% in assay [1] and 9% in assay [2]. In addition, the EC50 was found to be 0.005 µM in assay [1] and 0.141 µM in assay [2].

As to `CNC(=O)c1ccc(N2CCC(OC3CCN(C(=O)C(O)(c4cccc(Cl)c4)C(F)(F)F)CC3)CC2)cc1Cl` (centres unmarked) [Example 7-31, 2-chloro-4-[4-({1-[2-(3-chlorophenyl)-3,3,3-trifluoro-2-hydroxypropanoyl]piperidin-4-yl}oxy)piperidin-1-yl]-N-methylbenzamide], in assay [1], the Emax turned out to be 112% and the EC50 was found to be 0.052 µM. In addition, in assay [2], the Emax turned out to be 40% and the EC50 stood at 1.58 µM.

As to `CN(C)C(=O)c1ccc(N2CCC(CC3CCN(C(=O)C(C)(C)c4ccccc4)CC3)CC2)nc1Cl` [Example 7-61, 2-chloro-N,N-dimethyl-6-(4-{[1-(2-methyl-2-phenylpropanoyl)piperidin-4-yl]methyl}piperidin-1-yl)pyridine-3-carboxamide], in assay [1], the Emax worked out at 68% and the EC50 stood at 0.045 µM. In assay [2], the Emax was found to be 21% and the EC50 is 0.817 µM.

As for `COc1cccc([C@@](O)(C(=O)N2CCC(CC3CCN(c4ccc(C(=O)N(C)C)c(Cl)c4)CC3)CC2)C(F)(F)F)n1` (stereo in doubt) [Example 2-165, 2-chloro-N,N-dimethyl-4-[4-({1-[3,3,3-trifluoro-2-hydroxy-2-(6-methoxy-pyridin-2-yl)propanoyl]piperidin-4-yl}methyl)piperidin-1-yl]benzamide], in assay [1], the Emax stood at 108% and the EC50 was 0.0025 µM. Also, in assay [2], the Emax amounted to 18% and the “LXR alpha IP (nM)” value is “NO IP”.

Consider `COc1cc(Cl)cc(C(O)(C(=O)N2CCC(CC3CCN(c4ccc(C(=O)N(C)C)c(Cl)n4)CC3)CC2)C(F)(F)F)c1` (centres unmarked) [Example 7-105, 2-chloro-6-[4-({1-[2-(3-chloro-5-methoxyphenyl)-3,3,3-trifluoro-2-hydroxypropanoyl]piperidin-4-yl}methyl)piperidin-1-yl]-N,N-dimethylpyridine-3-carboxamide], for which, in assay [1], the Emax came out at 30% and the EC50 was 0.076 µM. For the same compound, in assay [2], the Emax is 0% and the “LXR alpha IP (nM)” value is on record as “NO IP”.
